Measured values taken from patent publication US9645128B2, “Substituted imidazo[1,2-A]pyrazines for measuring a transcription activity” (JNC CORPORATION, priority 2009, dated 2017).

Legend:
recombinant apoaequorin [1] = biological target: T1, recombinant apoaequorin (Aequorea victoria, UniProt P07164); experiment: Calcium standard curve with semi-synthetic aequorins; type: biochemical; set-up: purchased Chisso Corporation; settings: Imax versus 10^-3 M to 10^-8 M calcium
Description: The dilution series was prepared by the serial process above to prepare standard calcium solution of 10^−3 M to 10^−8 M.
The semi-synthetic aequorin obtained was concentrated using Amicon Ultra-4 (manufactured by Millipore, molecular weight cut off, 10.000).
This semi-synthetic aequorin solution (2.5 mg/ml) was diluted with 20 mM Tris-HCl (pH 7.6) containing 0.1% BSA (manufactured by Sigma), 0.01 mM EDTA and 150 mM NaCl.
The calcium standard solution prepared as described above was dispensed into a 96-well microplate (Nunc #236108) in 50 μl/well, and the semi-synthetic aequorin solution diluted was injected in […]. The luminescence intensity was measured for 60 seconds using a luminescence plate reader Centro LB960 (manufactured by Berthold) and expressed in terms of the maximum luminescence intensity (Imax). The luminescence intensity was measured for each semi-synthetic aequorin in the same fashion. Based on the maximum luminescence intensity (Imax) obtained, the calcium standard curve for each semi-synthetic aequorin was prepared.

recombinant apoaequorin [2] = biological target: T1, recombinant apoaequorin; experiment: Production of semi-synthetic aequorins and measurement of luminescence activity (Imax, luminescence capacity); settings: regeneration 0.5 to 18 hours at 4° C.
Description: In order to confirm the regeneration time and regeneration efficiency from apoaequorin to the semi-synthetic aequorin, the luminescence activity was assayed at the respective points of the regeneration process (at the respective points of 0.5, 1, 1.5, 2, 3 and 18 hours from the start of regeneration).
Specifically, the luminescence activity described above was measured as follows. The luminescence reaction was started by adding 100 μl of 50 mM Tris-HCl (pH 7.6) containing 50 mM calcium chloride solution to 2 μl of a solution of the semi-synthetic aequorin at each regeneration process. The luminescence activity was measured for 10 seconds with a luminometer Luminescencer-PSN AB2200 (manufactured by Atto Co., Ltd.). The measured values were represented as the maximum intensity (Imax) of luminescence. The emission for 60 seconds was integrated, which was made a luminescence capacity.

Renilla luciferase = biological target: T2, Renilla luciferase (Renilla reniformis, UniProt P27652); experiment: Substrate specificity, luminescence activity and emission spectra of Renilla luciferase; type: biochemical; settings: for Maximum emission wavelength λmax (nm) / Luminescence activity Imax (%) / Luminescence capacity 10 secs. (%): Renilla luciferase; for Maximum emission wavelength λmax (nm): 22 to 25° C.; for Luminescence activity Imax (%) / Luminescence capacity 10 secs. (%): coelenterazine = 100.0; for Ability to act as substrate for Renilla luciferase: TABLE 4
T2 construct: made in house
T2 sequence (P27652 1-311): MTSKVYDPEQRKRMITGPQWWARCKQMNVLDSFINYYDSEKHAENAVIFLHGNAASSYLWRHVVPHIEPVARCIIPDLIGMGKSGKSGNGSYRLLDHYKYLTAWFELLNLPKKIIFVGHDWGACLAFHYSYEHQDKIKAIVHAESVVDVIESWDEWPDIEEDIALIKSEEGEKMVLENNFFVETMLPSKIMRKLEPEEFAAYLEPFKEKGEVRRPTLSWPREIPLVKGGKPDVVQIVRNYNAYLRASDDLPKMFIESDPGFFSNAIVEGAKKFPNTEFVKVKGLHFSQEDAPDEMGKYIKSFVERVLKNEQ
Description: Res. Commun. (1997) 233: 349-353, which was provided for use.

[3] = biological target: T3, 19 kDa protein of Oplophorus luciferase (Oplophorus gracilirostris, UniProt Q9GV45); experiment: Substrate specificity, luminescence activity and emission spectra of the 19 kDa protein of Oplophorus luciferase; type: biochemical, Oplophorus gracilorostris; settings: for Maximum emission wavelength λmax (nm) / Luminescence capacity 10 secs. (%) / Luminescence activity Imax (%): Oplophorus luciferase; for Maximum emission wavelength λmax (nm): 22 to 25° C.; for Luminescence capacity 10 secs. (%): emission integrated for 10 seconds; for Luminescence capacity 10 secs. (%) / Luminescence activity Imax (%): coelenterazine = 100.0; for Quality as luminescence substrate for Oplophorus luciferase: TABLE 2
T3 construct: made in house
T3 sequence (Q9GV45 28-196): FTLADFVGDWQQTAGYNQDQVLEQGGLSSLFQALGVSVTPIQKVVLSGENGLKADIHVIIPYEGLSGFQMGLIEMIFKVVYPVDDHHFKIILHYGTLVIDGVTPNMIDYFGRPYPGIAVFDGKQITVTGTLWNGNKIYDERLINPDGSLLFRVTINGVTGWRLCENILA

Gaussia luciferase = experiment: Substrate specificity, luminescence activity and emission spectra of Gaussia luciferase; settings: for Luminescence activity Imax (%) / Luminescence capacity 10 secs. (%): Gaussia luciferase, coelenterazine = 100.0
Description: The luminescence activity was measured for 10 seconds using a luminometer Luminescencer-PSN AB2200 (manufactured by Atto Co., Ltd.). The luminescence activity was measured 3 times and expressed as the maximum intensity (Imax) of luminescence.

recombinant apoaequorin [4] = biological target: T1, recombinant apoaequorin; experiment: Luminescence patterns and half decay time of semi-synthetic aequorins; type: biochemical; set-up: purchased Chisso Corporation; settings: for Half decay time sec.: semi-synthetic aequorin, time to reach half of the maximum luminescence intensity
Description: The dilution was dispensed into a 96-well microplate (Nunc #236108) in 5 μl/well. […] The luminescence patterns for 60 seconds were measured to determine the half decay time of luminescence (time period to reach the half of the maximum luminescence intensity).

recombinant apoaequorin [5] = biological target: T1, recombinant apoaequorin; experiment: Emission spectra of semi-synthetic aequorins by addition of calcium ions; settings: for Emission spectra of semi-synthetic aequorins compared with known analogs (FIG. 3): compared to h-CTZ and i-CTZ; for Maximum emission wavelength λmax (nm): semi-synthetic aequorin, 22 to 25° C.
Description: In a quartz cell with an optical path length of 10 mm, 1 ml of 50 mM Tris-HCl (pH 7.6) containing 1 mM EDTA and 100 μl (100 μg protein) of a solution of the regenerated semi-synthetic aequorin were charged and they were mixed. Subsequently, 100 μl of 50 mM Tris-HCl (pH 7.6) containing 0.1 ml of 10 mM calcium chloride solution was added to the mixture to trigger the luminescence reaction. The spectra were measured on a spectrofluorimeter (FP-6500, manufactured by JASCO Corporation) with the excitation source turned off. The measurement conditions used were as follows: band width, 20 nm; response, 0.5 second and scan speed, 2000 nm/min at 22 to 25° C.

T1 sequence (P07164 other isoform, or with tags, fused parts or gaps with the stated changes): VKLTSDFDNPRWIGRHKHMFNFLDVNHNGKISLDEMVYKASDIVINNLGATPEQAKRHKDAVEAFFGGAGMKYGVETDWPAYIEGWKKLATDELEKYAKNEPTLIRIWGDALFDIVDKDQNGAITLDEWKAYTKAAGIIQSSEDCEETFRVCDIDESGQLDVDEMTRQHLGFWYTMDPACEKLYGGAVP

Compound	Calcium standard curve with semi-synthetic aequorin (FIG. 4) (recombinant apoaequorin [1])	Ability to act as luminescence substrate for semi-synthetic aequorins (FIG. 1) (recombinant apoaequorin [2])	Maximum emission wavelength λmax (nm) (Renilla luciferase)	Luminescence activity Imax (%) (Renilla luciferase)	Luminescence capacity 10 secs. (%) (Renilla luciferase)	Ability to act as substrate for Renilla luciferase (Renilla luciferase)	Maximum emission wavelength λmax (nm) [3] [nm]	Luminescence capacity 10 secs. (%) [3] [%]	Luminescence activity Imax (%) [3] [%]	Quality as luminescence substrate for Oplophorus luciferase [3]	Luminescence activity Imax (%) (Gaussia luciferase)	Luminescence capacity 10 secs. (%) (Gaussia luciferase)	Quality as luminescence substrate for Gaussia luciferase (Gaussia luciferase; TABLE 3)	Half decay time of luminescence compared with CTZ (recombinant apoaequorin [4]; semi-synthetic aequorin (FIG. 2, TABLE 1))	Half decay time sec. (recombinant apoaequorin [4]) [s]	Emission spectra of semi-synthetic aequorins compared with known analogs (FIG. 3) (recombinant apoaequorin [5])	Maximum emission wavelength λmax (nm) (recombinant apoaequorin [5])	melting point
Cc1ccc(Cc2nc3c(Cc4ccccc4)[nH]c(-c4ccc(O)cc4)cn-3c2=O)cc1 [me-CTZ, me-coelenterazine]	calcium standard curves can be prepared	can be luminescence substrates for semi-synthetic aequorins	472.0	6.6	7.0	can be substrates for Renilla luciferase	454.4	82.7	46.6	relatively good luminescence substrates	4.5	5.9	effective luminescence substrates	longer than CTZ	5.00	exhibit different emission spectra from those of known coelenterazine analogs	469.5	150 to 152 °C (dec.)
COc1ccc(Cc2nc3c(Cc4ccccc4)[nH]c(-c4ccc(O)cc4)cn-3c2=O)cc1 [meo-CTZ, meo-coelenterazine]	calcium standard curves can be prepared	can be luminescence substrates for semi-synthetic aequorins	472.5	8.0	8.6	can be substrates for Renilla luciferase	454.5	108.6	68.1	relatively good luminescence substrates	13.6	15.5			1.63	exhibit different emission spectra from those of known coelenterazine analogs	469.0	137 to 139 °C (dec.)
CC(c1ccccc1)c1nc2c(Cc3ccccc3)[nH]c(-c3ccc(O)cc3)cn-2c1=O (centres unmarked) [αmeh-CTZ, αmeh-coelenterazine]	calcium standard curves can be prepared	can be luminescence substrates for semi-synthetic aequorins		0.0	0.0		457.0	19.0	15.6	relatively good luminescence substrates	>0.01	>0.01			0.35		467.5	143 to 145 °C (dec.)
